Reference: paper PMC11532403 (Signal Transduction and Targeted Therapy, 2024)
Values joined by “and” are separate entries in the source; they are usually repeats but may differ in a detail not shown here. Equal values may be shown once.

System: RET-altered solid tumors
Experiment: Phase 1 trial: anti-tumor efficacy (RECIST 1.1)
Format: in vivo, human
Experimental: Radiologic tumor assessments were conducted by computed tomography (CT) or magnetic resonance imaging (MRI) of brain, chest, abdomen, and pelvis at baseline, 4 weeks for the first tumor assessment, then every 8 weeks (± 7 days) for 1 year, and every 12 weeks (± 7 days) thereafter. MTC patients were longitudinally monitored for serum calcitonin and carcinoembryonic antigen (CEA) levels.

[1] = All patients, 160 mg BID (n = 95)
[2] = All patients, 200 mg BID (n = 10)
[3] = All patients, all doses (n = 116)
[4] = Previously treated, 160 mg BID (n = 58)
[5] = Previously treated, 200 mg BID (n = 8)
[6] = Previously treated, all doses (n = 76)
[7] = RP2D 160 mg BID, MTC, all (n = 23)
[8] = RP2D 160 mg BID, NSCLC, all (n = 64)
[9] = RP2D 160 mg BID, PTC, all (n = 7)
[10] = RP2D, MTC, previously treated (n = 15)
[11] = RP2D, MTC, treatment-naïve (n = 8)
[12] = RP2D, NSCLC, previously treated (n = 36)
[13] = RP2D, NSCLC, treatment-naïve (n = 28)
[14] = RP2D, PTC, previously treated (n = 6)

SMILES: COc1ccc(CN2C3CC2CN(c2ccc(-c4cc(N5CC(C)(O)C5)cn5ncc(C#N)c45)cn2)C3)cn1 [SY-5007, 6-(3-hydroxy-3-methylazetidin-1-yl)-4-(6-(6-((6-methoxypyridin-3-yl)methyl)-3,6-diazabicyclo[3.1.1]heptan-3-yl)pyridin-3-yl)pyrazolo[1,5-a]pyridine-3-carbonitrile]
- Patients with target tumor shrinkage (111/116): 95.7%
- Progressive disease (All patients, 20 mg QD to 120 mg BID cohorts): 0 (0.0) n (%)
- DCR (95% CI) (All patients, 20 mg QD to 120 mg BID cohorts, 20 mg once daily): 100.0 (2.5–100.0) %
- Median TTR (95% CI) (All patients, 20 mg QD to 120 mg BID cohorts, 20 mg twice daily): 6.73 (NE-NE) months
- DCR (95% CI) (All patients, 20 mg QD to 120 mg BID cohorts, 40 mg twice daily): 100.0 (29.2–100.0) %
- Median TTR (95% CI) (All patients, 20 mg QD to 120 mg BID cohorts, 120 mg twice daily): 8.37 (1.18-NE) months
- DCR (95% CI) [1]: 94.7 (88.1–98.3) %
- Median DoR (95% CI) [1]: 13.0 (12.8-NE) months
- Median PFS (95% CI) [1]: 15.4 (13.8-NE) months
- Median TTR (95% CI) [1]: 2.79 (2.75–4.63) months
- ORR (95% CI) [1]: 58.9 (48.4–68.9) %
- Partial response [1]: 56 (58.9) n (%)
- Progressive disease [1]: 5 (5.3) n (%)
- Stable disease [1]: 34 (35.8) n (%)
- DCR (95% CI) [2]: 100.0 (69.2–100.0) %
- Median TTR (95% CI) [2]: 1.14 (0.91-NE) months
- ORR (95% CI) [2]: 60.0 (26.2–87.8) %
- Partial response [2]: 6 (60.0) n (%)
- Progressive disease [2]: 0 (0.0) n (%)
- Stable disease [2]: 4 (40.0) n (%)
- DCR (95% CI) [3]: 95.7 (90.2–98.6) %
- Median DoR (95% CI) [3]: 19.9 months and 19.9 (12.8–NE) months
- Median PFS (95% CI) [3]: 21.1 months and 21.1 (13.8–NE) months
- Median TTR (95% CI) [3]: 2.82 (2.75–4.66) months
- ORR (95% CI) [3]: 57.8 (48.2–66.9) %
- Partial response [3]: 67 (57.8) n (%)
- Progressive disease [3]: 5 (4.3) n (%)
- Stable disease [3]: 44 (37.9) n (%)
- Estimated 12-month PFS rate (MTC at RP2D): 85.2%
- Estimated 6-month PFS rate (NSCLC at 160 mg BID): 89.6%
- Estimated 12-month PFS rate (NSCLC at 160 mg BID): 67.5%
- Estimated 12-month PFS rate (PTC at RP2D): 100.0%
- Median PFS (95% CI) (Previously treated, 20 mg QD (n = 1)): 4.83 (NE-NE) months
- Progressive disease (Previously treated, 20 mg QD to 120 mg BID cohorts): 0 (0.0) n (%)
- DCR (95% CI) (Previously treated, 20 mg QD to 120 mg BID cohorts, 20 mg once daily): 100.0 (2.5–100.0) %
- Median TTR (95% CI) (Previously treated, 20 mg QD to 120 mg BID cohorts, 20 mg twice daily): 6.73 (NE-NE) months
- DCR (95% CI) (Previously treated, 20 mg QD to 120 mg BID cohorts, 40 mg twice daily): 100.0 (15.8–100.0) %
- DCR (95% CI) (Previously treated, 20 mg QD to 120 mg BID cohorts, 80 mg twice daily): 100.0 (29.2–100.0) %
- Median TTR (95% CI) (Previously treated, 20 mg QD to 120 mg BID cohorts, 120 mg twice daily): 8.37 (1.18-NE) months
- DCR (95% CI) [4]: 94.8 (85.6–98.9) %
- Median DoR (95% CI) [4]: 13.0 (9.23-NE) months
- Median PFS (95% CI) [4]: 15.4 (13.8-NE) months
- Median TTR (95% CI) [4]: 4.56 (2.75-NE) months
- ORR (95% CI) [4]: 51.7 (38.2–65.0) %
- Partial response [4]: 30 (51.7) n (%)
- Progressive disease [4]: 3 (5.2) n (%)
- Stable disease [4]: 25 (43.1) n (%)
- DCR (95% CI) [5]: 100.0 (63.1–100.0) %
- Median TTR (95% CI) [5]: 3.15 (0.91-NE) months
- ORR (95% CI) [5]: 50.0 (15.7–84.3) %
- Partial response [5]: 4 (50.0) n (%)
- Progressive disease [5]: 0 (0.0) n (%)
- Stable disease [5]: 4 (50.0) n (%)
- DCR (95% CI) [6]: 96.1 (88.9–99.2) %
- Median DoR (95% CI) [6]: 19.9 (12.8-NE) months
- Median TTR (95% CI) [6]: 4.63 (2.75-NE) months
- ORR (95% CI) [6]: 51.3 (39.6–63.0) %
- Partial response [6]: 39 (51.3) n (%)
- Progressive disease [6]: 3 (3.9) n (%)
- Stable disease [6]: 34 (44.7) n (%)
- Patients with progression or death (RET fusion-positive NSCLC at 160 mg BID): 26.6%
- DCR (95% CI) [7]: 91.3 (72.0-98.9) %
- Median TTR (95% CI) [7]: 4.66 (2.75-NE) months
- ORR (95% CI) [7]: 52.2 (30.6-73.2) %
- Partial response [7]: 12 (52.2) n (%)
- Progressive disease [7]: 2 (8.7) n (%)
- Stable disease [7]: 9 (39.1) n (%)
- DCR (95% CI) [8]: 96.9 (89.2-99.6) %
- Median DoR (95% CI) [8]: 13.0 months and 13.0 (9.26-NE) months
- Median PFS (95% CI) [8]: 15.4 months and 15.4 (10.1-NE) months
- Median TTR (95% CI) [8]: 2.75 (1.01-2.89) months
- ORR (95% CI) [8]: 64.1 (51.1-75.7) %
- Partial response [8]: 41 (64.1) n (%)
- Progressive disease [8]: 2 (3.1) n (%)
- Stable disease [8]: 21 (32.8) n (%)
- DCR (95% CI) [9]: 100.0 (59.0-100.0) %
- ORR (95% CI) [9]: 42.9 (9.9-81.6) %
- Partial response [9]: 3 (42.9) n (%)
- Progressive disease [9]: 0 (0.0) n (%)
- Stable disease [9]: 4 (57.1) n (%)
- DCR (95% CI) [10]: 100.0 (78.2-100.0) %
- ORR (95% CI) [10]: 40.0 (16.3-67.7) %
- Partial response [10]: 6 (40.0) n (%)
- Progressive disease [10]: 0 (0.0) n (%)
- Stable disease [10]: 9 (60.0) n (%)
- DCR (95% CI) [11]: 75.0 (34.9-96.8) %
- Median TTR (95% CI) [11]: 2.75 (0.85-NE) months
- ORR (95% CI) [11]: 75.0 (34.9-96.8) %
- Partial response [11]: 6 (75.0) n (%)
- Progressive disease [11]: 2 (25.0) n (%)
- Stable disease [11]: 0 (0.0) n (%)
- DCR (95% CI) [12]: 94.4 (81.3-99.3) %
- Median DoR (95% CI) [12]: 13.0 (9.20-NE) months
- Median PFS (95% CI) [12]: 13.8 (10.1-NE) months
- Median TTR (95% CI) [12]: 2.75 (0.98-NE) months
- ORR (95% CI) [12]: 58.3 (40.8-74.5) %
- Partial response [12]: 21 (58.3) n (%)
- Progressive disease [12]: 2 (5.6) n (%)
- Stable disease [12]: 13 (36.1) n (%)
- DCR (95% CI) [13]: 100.0 (87.7-100.0) %
- Median DoR (95% CI) [13]: 14.5 (9.26-NE) months
- Median PFS (95% CI) [13]: 15.5 (9.23-NE) months
- Median TTR (95% CI) [13]: 1.11 (0.91-3.15) months
- ORR (95% CI) [13]: 71.4 (51.3-86.8) %
- Partial response [13]: 20 (71.4) n (%)
- Progressive disease [13]: 0 (0.0) n (%)
- Stable disease [13]: 8 (28.6) n (%)
- DCR (95% CI) [14]: 100.0 (54.1-100.0) %
- ORR (95% CI) [14]: 50.0 (11.8-88.2) %
- Partial response [14]: 3 (50.0) n (%)
- Progressive disease [14]: 0 (0.0) n (%)
- Stable disease [14]: 3 (50.0) n (%)
- DCR (95% CI) (RP2D, PTC, treatment-naïve (n = 1)): 100.0 (2.5-100.0) %
